Source: patent US12281335B2, “Methods and compositions for delivery of viral vectors across the blood-brain barrier” (priority 2017, dated 2025)
Entries after “also recorded” stand apart in the source; their conditions may differ. Ends that are not written are not given here.

Assays:
[1] = system: HEK293 cells or Huh7 cells; experiment: In vitro transduction assay, AAV8/luc with peptides; format: cell-based, human; details: 10000 vg AAV8/luc incubated with peptides 2 h at 4° C.; both cell lines; 48 h; vs AAV8 only
Method: In vitro transduction assay. At least 4-5 h prior to AAV transduction, cells were seeded in 48-well plates with a density of 1E+05 cells each well. Cells were infected with 1E+04 vector genomes (vg) of AAV8/luc virus per cell and harvested after 48 h. Luciferase activity was measured following manufacturer's instruction (Promega, Madison, WI).
The complex of AAV8 and peptides influences AAV8 transduction in vitro and in vivo. To identify the potential and functional peptides that enhanced AAV8 transduction, we screened several reported peptides as shown in Table 5 and Table 6. First, we tested the cytotoxicity of peptides at different concentrations on cells. […] After that, we performed the transduction assay in vitro. We incubated the 10000 vg AAV8/luc and peptides for 2 h at 4° C., and then applied the mixture to HEK293 cells or Huh7 cells. After 48 h, the cell lysate was collected for luciferase analysis.

[2] = system: C57BL/6 mice; details: 1E+11 vg each mouse, intravenous; 5 min to 48 h; vs AAV8/luc
Method: (§1) Animal study. […] Mice were administered with AAV8/Luc incubated with peptides via retro-orbital injection. Luciferase expression was imaged at the indicated time points using a Xenogen IVIS Lumina (Caliper Lifesciences, Waltham, MA) following intraperitoneal injection of D-luciferin substrate (Nanolight Pinetop, AZ). Bioluminescent images were analyzed using Living Image (PerkinElmer, Waltham, MA). At various time points after injection, blood was collected from the retro-orbital plexus, and the viral titers were tested by qPCR.

[3] = system: Huh7 or HEK293 cells; experiment: Neutralization assay (Nab titer); format: cell-based, human; details: THR at different concentrations
Method: Neutralization assay. Huh7 or HEK293 cells were seeded in 48-well plates with a density of 5E+04 cells each well. The complex of AAV8/luc and different concentrations of THR was incubated at 4° C. for 2 h, then, two-fold dilutions of the mouse AAV8 sera were incubated with 1E+04vg of AAV8/luc virus or the complex of AAV8/luc and THR per cell for 1 h at 37° C. The final mixture was added into cells and incubated at 37° C. for 48 h. Cells were lysed with passive lysis buffer (Promega, Madison, WI) and luciferase activity was measured. Nab titers were defined as the highest dilution for which luciferase activity was 50% lower than serum-free controls.

[4] = system: Huh7 cells; experiment: AAV8 binding assay; format: cell-based, human; details: 4° C., 1 h; genome copy number normalized to GAPDH
Method: AAV8 binding assay. The complex of AAV8/luc and THR or human apo-transferrin protein (Sigma, 616395, USA) was incubated at 4° C. for 2 h, 10000 vg AAV8/luc virus alone or the complex was added into Huh7 cells at a cell density of 4E+05 per well for 1 h at 4° C., and then washed with DPBS 3 times. Finally, genome DNA (gDNA) was extracted from the cells with the DNeasy blood & tissue kit (Qiagen, USA) and was quantified by qPCR with luciferase primers and reference GAPDH primers.

[5] = target: T1, mouse TfR1 (Mus musculus, UniProt Q62351); experiment: Immunofluorescence assay on CHO-TRVB cells; format: binding; details: 5-FAM-THR
T1 construct: expressed in transfected cells; host or cells: CHO-TRVB cells (devoid of endogenous TfR1)
Method: Immunofluorescence. Plasmids mCherry-TFR-20 and mCherry-mTfR-20 were separately transfected into the 50-70% confluent CHO-TRVB cells grown on glass coverslips using lipofectamine 3000 reagent (Invitrogen, USA). After 48 h post-transfection, the coverslips were washed and incubated with 1 nM 5-FAM-THR at 37° C. for 1 h, then cells were acid-washed with 0.2 M glycine/HCl, pH 2.2, and fixed in 4% paraformaldehyde for 30 min at 4° C. Finally, DAPI was used at a 1:5,000 dilution for 5 min at RT. Coverslips were mounted and imaged on the Olympus IX-83 fluorescence microscope.

[6] = system: C57BL/6 mice; experiment: In vivo luciferase imaging after retro-orbital injection of AAV8/luc with peptides; set-up: species or system mouse
Method: as §1

[7] = AAV9 brain transduction with THR after systemic administration; format: in vivo
[8] = system: C57BL/6 mice; experiment: Quantitation of luciferase expression in tissues; format: in vivo, mouse
Method: Quantitation of luciferase expression in tissues. Animals utilized for imaging studies were sacrificed after one-week post imaging work, and the tissues of the heart, liver, spleen, skeletal muscle and brain were collected, and were minced and homogenized in passive lysis buffer. Then the lysates were centrifuged at 10,000 rpm for 5 minutes to remove cellular debris. Supernatant was transferred to 96-well plates for luciferase activity analysis as described above. Total protein concentration in tissue lysates was measured using the Bradford assay (Bio-Rad Laboratories, Philadelphia, PA).

[9] = system: C57BL/6 mice; experiment: Measurement of AAV genome copy number in tissue; format: in vivo, mouse
Method: Measurement of AAV genome copy number in tissue. Total gDNA from different minced tissues was isolated with the DNeasy blood & tissue kit (Qiagen, USA). Luciferase gene was measured by qPCR assay. Mouse-lamin gene served as an internal control.

[10] = system: human transferrin binding to AAV8 virions; experiment: AAV8 competitive binding assay; details: pre-incubation with AAV8, then human transferrin; pull down with transferrin antibody, qPCR
Method: AAV8 competitive binding assay. For THR competitive binding analysis, 10 ul of Protein G resin (Thermo, USA) per system was incubated with 1 ug of human transferrin antibody or goat IgG antibody control at 4° C. overnight. […] After that, the mixture was added to the complex of protein G resin and transferrin antibody and incubated at 4° C. overnight. Finally, the complex was stringently washed three times with cold DPBS. DNA from the complex was extracted and applied for qPCR to determine AAV genome copy number per cell using luc specific primers.
To investigate whether THR also binds to the same location of AAV8 virions as human serum proteins, we performed a competitive assay. […] The transferrin antibody was used to pull down transferrin bound AAV8 virions and AAV8 gene copy number was measured by qPCR.

T1 sequence (Q62351 whole entry): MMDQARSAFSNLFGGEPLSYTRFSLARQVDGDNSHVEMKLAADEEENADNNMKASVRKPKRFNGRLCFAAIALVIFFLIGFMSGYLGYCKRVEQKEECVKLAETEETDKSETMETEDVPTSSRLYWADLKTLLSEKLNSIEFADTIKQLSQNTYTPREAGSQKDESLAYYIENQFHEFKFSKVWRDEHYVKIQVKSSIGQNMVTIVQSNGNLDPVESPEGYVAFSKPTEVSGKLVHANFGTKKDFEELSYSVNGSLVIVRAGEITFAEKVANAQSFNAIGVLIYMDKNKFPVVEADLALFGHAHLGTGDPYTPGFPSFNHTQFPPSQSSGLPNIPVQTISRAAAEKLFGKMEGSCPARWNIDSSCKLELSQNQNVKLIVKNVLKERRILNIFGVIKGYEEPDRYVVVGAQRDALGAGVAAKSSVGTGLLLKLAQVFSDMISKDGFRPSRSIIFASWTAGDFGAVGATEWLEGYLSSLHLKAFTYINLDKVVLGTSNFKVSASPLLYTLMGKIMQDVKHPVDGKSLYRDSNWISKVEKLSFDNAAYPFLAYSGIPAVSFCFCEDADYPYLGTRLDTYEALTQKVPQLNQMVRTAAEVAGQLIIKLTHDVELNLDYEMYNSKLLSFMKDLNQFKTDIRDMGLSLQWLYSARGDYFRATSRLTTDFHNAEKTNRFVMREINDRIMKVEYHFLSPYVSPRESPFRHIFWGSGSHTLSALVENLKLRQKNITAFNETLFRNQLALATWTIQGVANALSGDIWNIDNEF

THRPPMWSPVWP-NH2 [THR]
AAV8 transduction (luciferase) [1]: significantly enhanced AAV8 transduction; also recorded: the most significant increase of AAV8 transduction
blood clearance of AAV8 [2]: decreasing the AAV8 clearance in the blood
AAV8/luc neutralization titer (Nab titer) [3]: did not interfere with the AAV8/luc neutralization titer; also recorded: does not interfere with the AAV8 biology
AAV8 virions binding to the Huh7 cells surface [4]: dramatically increased AAV8 virions binding; also recorded: enhanced the binding ability of AAV8 dose dependently
interaction with mouse TfR1 [5]: could interact with mouse TfR1
AAV8 transduction in the whole body, especially brain (imaging) ([6]; 0.1 mM peptide + 5E+10 vg AAV8/luc, 7th day): significantly increased AAV8 transduction overall; also recorded: significantly enhances AAV8 transduction in vivo, especially in the brain
transgene expression in the liver (imaging) ([6]; 0.1 mM peptides + 5E+10 vg AAV8/luc, retro-orbital vein, 7th day): higher
AAV8 transduction in whole body and brain (imaging), high dose ([6]; 1E+11 vg each mouse, AAV8-0.1 mM THR): enhanced the AAV8 transduction in both the whole body and the brain
AAV8 liver transduction (imaging), THR mixed just before injection ([6]; AAV8/0.1 mM THR, no pre-incubation): blocked AAV8 liver transduction
luciferase imaging signal, dose dependence ([6]; different concentrations of THR + 5E+10 particles AAV8/luc): stronger imaging signals; also recorded: enhances the AAV8 transduction in vivo in a dose-dependent manner
AAV9 brain transduction after systemic administration [7]: failed to enhance AAV9 brain transduction
AAV8 brain transduction (luc expression and genome number) ([8]; 0.1 mM peptides + 5E+10 vg AAV8/luc): increased AAV8 transduction in the brain
luciferase expression and virus distribution in the brain, THR mixed just before injection ([8]; AAV8/0.1 mM THR, no pre-incubation, vs AAV8): did not observe a significant difference
AAV genome copy number in the brain ([9]; 0.1 mM peptides + 5E+10 vg AAV8/luc, vs AAV8 only): much higher
gene copy number in liver, brain and spleen ([9]; three groups with different THR concentrations + 5E+10 particles AAV8/luc): significantly higher enhancement than the control group; also recorded: more vector genome copy number in the brain
inhibition of transferrin binding to AAV8 [10]: competes with human transferrin binding to AAV8
